Experimental data published in the supplement of paper PMC3974653.
Counter-ions that a name gives are not always drawn.

test system: MTT (mouse pheochromocytoma); assay: IC50 of cell viability (ATP content); conditions: (24 or 48 h)
How it was run: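 Library compounds were tested at 8 final concentrations (0.5 nM to 46 µM) on MTT mouse pheochromocytoma cells for 24 or 48 hrs, with readout by CellTiter-Glo ATP luminescence. Signals were normalised with positive-control wells at 100% and DMSO wells at 0%. IC50 values were obtained by a four-parameter logistic fit.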

| IC50 of cell viability [µM] | SMILES |
| --- | --- |
| > 46 | CO[C@H]1C[C@@H]2CC[C@@H](C)[C@@](O)(O2)C(=O)C(=O)N2CCCC[C@H]2C(=O)O[C@H]([C@H](C)C[C@@H]2CC[C@@H](OCCO)[C@H](OC)C2)CC(=O)[C@H](C)C=C(C)[C@@H](O)[C@@H](OC)C(=O)[C@H](C)C[C@H](C)/C=C/C=C/C=C1C [EVEROLIMUS] |
| > 46 | CC(=O)O[C@H]1C[C@@H]2CC[C@@H]3[C@H](CC[C@]4(C)[C@H](OC(C)=O)[C@@H](N5CC[N+](C)(C)CC5)C[C@@H]34)[C@@]2(C)C[C@@H]1N1CC[N+](C)(C)CC1 [Pipecuronium] |
| > 46 | CCC(Oc1ccccc1)C(=O)NC1C(=O)N2C1SC(C)(C)C2C(=O)[O-] (centres undefined) [Propicillin] |
| > 46 | COC(=O)C1=C(C)NC(C)=C(C(=O)OC(C)(C)CN(C)CCC(c2ccccc2)c2ccccc2)C1c1cccc([N+](=O)[O-])c1 (centres undefined) [LERCANIDIPINE HYDROCHLORIDE] |
| > 46 | CCOC(=O)[C@H](CCc1ccccc1)N[C@H]1CCCN2CCC[C@@H](C(=O)O)N2C1=O [Cilazapril] |
| > 46 | C=C1C(n2cnc3c(O)nc(N)nc32)C[C@H](O)[C@H]1CO (some centres undefined) [ENTECAVIR] |
| > 46 | COc1cc(C(=O)OCCCN2CCCN(CCCOC(=O)c3cc(OC)c(OC)c(OC)c3)CC2)cc(OC)c1OC [DILAZEP] |
| > 46 | CCOc1ccc(NC(=S)Nc2ccc(OCC)cc2)cc1 [Etocarlida] |
| > 46 | CNC(=O)c1c(I)c(C(=O)NCC(=O)Nc2c(I)c(C(=O)O)c(I)c(C(=O)NCCO)c2I)c(I)c(N(C)C(C)=O)c1I [Ioxaglic acid] |
| > 46 | CCOC(=O)C1=C(C)NC(C)=C(C(=O)OCC)C1c1ccccc1/C=C\C(=O)OC(C)(C)C [Lacidipine] |
| > 46 | CS(=O)(=O)NC(=O)CCC/C=C\C[C@H]1C(=O)C[C@@H](O)[C@@H]1/C=C/[C@@H](O)COc1ccccc1 [Sulprostone] |
| > 46 | CC(C)(C)c1ccc2c(S(=O)(=O)[O-])c(C(C)(C)C)ccc2c1 [DIBUNATE SODIUM] |
| > 46 | CCCC(=O)[O-] [SODIUM BUTYRATE] |
| > 46 | O=C(CCN1CCN2CCCC2C1)N1c2ccccc2Sc2ccc(Cl)cc21 (centres undefined) [Azaclorzina] |
| > 46 | CN1CC(=O)\N=C1\NC(=O)NC2=CC(=CC=C2)Cl [Fenobam] |
| > 46 | NC[C@@H]1O[C@H](OC2[C@@H](CO)O[C@@H](OC3[C@H](O)[C@H](N)C[C@H](N)[C@H]3OC3O[C@H](CO)[C@@H](O)[C@H](O)[C@@H]3N)[C@H]2O)C(N)[C@H](O)[C@@H]1O (some centres undefined) [PAROMOMYCIN SULFATE] |
| > 46 | CCCCCN(CCCCC)C(=O)C(CCC(=O)[O-])NC(=O)c1ccc(Cl)c(Cl)c1.[Na+] (centres undefined) [LORGLUMIDE SODIUM] |
| > 46 | Cc1ccc(/C(=C\CN2CCCC2)c2ccccn2)cc1 [trans-TRIPROLIDINE] |
| > 46 | CCCCCCC(=O)O[C@@H]1CC[C@H]2[C@@H]3CCc4cc(O)ccc4[C@H]3CC[C@]12C [Estradiol enanthate] |
| > 46 | CCCOC(=O)c1cc(O)c(O)c(O)c1 [Propyl gallate] |

| IC50 of cell viability [µM] | SMILES |
| --- | --- |
| > 46 | CC12CCC(C[N+](C)(CCC[N+](C)(C)C)C1)C2(C)C (centres undefined) [TRIMETHIDINII METHOSULFAS] |
| > 46 | O=NN(CCCl)C(=O)NCCCl [Carmustine] |
| > 46 | CCN(CC)CCOc1ccccc1C(=O)CCc1ccccc1 [ETAFENONE HYDROCHLORIDE] |
| > 46 | Nc1ccc([N+](=O)[O-])cc1O [2-Amino-5-nitrophenol] |
| > 46 | CC1(C)O[C@@H]2C[C@@H]3[C@@H]4C[C@@H](F)\C5=C\C(=O)\C=C/[C@]5(C)[C@H]4[C@H](O)C[C@@]3(C)[C@]2(O1)C(=O)CO [Flunisolide] |
| > 46 | CCCCCCCCCCCCCCCC[N+](C)(C)CCN(Cc1ccc(OC)cc1)c1ncccn1 [Thonzonium bromide] |
| > 46 | NC(=O)N/N=C/c1ccc([N+](=O)[O-])o1 [Nitrofurazone] |
| > 46 | Nc1ccc(/N=N/c2ccccc2)c(N)n1 [Fenazopiridina] |
| > 46 | C=C(Nc1ccc(OCC)cc1)Nc1ccc(OCC)cc1 [Phenacaine hydrochloride] |
| > 46 | COc1ccc(CN(CCN(C)C)c2ccccn2)cc1 [MEPYRAMINE] |
| > 46 | C[S+]([O-])(=O)C1=CC=C(C=C1)C/2=C(/C(=O)OC2)C3=CC=CC=C3 [ROFECOXIB] |
| > 46 | C1CC[N@]2C[C@@H]3C[C@@H](CN4CCCC[C@H]34)[C@H]2C1 [Sparteine (-)] |
| > 46 | N[S+](=O)([O-])c1ccc(C(=O)O)cc1 [CARZENIDUM] |
| > 46 | Cc1[nH]cnc1CN1CCc2c(c3ccccc3n2C)C1=O [ALOSETRON HYDROCHLORIDE] |
| > 46 | N=C(N)N/N=C/c1c(Cl)cccc1Cl [GUANABENZ] |
| > 46 | O=C(OCc1ccccc1)c1cccnc1 [BENZYL NICOTINATE] |
| > 46 | Cc1ccc([S+](=O)([O-])NC(=O)NC2CCCCC2)cc1 [Glycyclamide] |
| > 46 | CC(=O)Nc1c(I)c(C(=O)N[C@H]2[C@H](O)[C@H](O)[C@H](CO)O[C@@H]2O)c(I)c(N(C)C(C)=O)c1I [Metrizamide] |
| > 46 | CC(C)[C@@H](N)C(=O)O [VALINE] |
| > 46 | CCC[C@H]1C[C@H](C(=O)N[C@@H]([C@@H]2O[C@@H](SC)[C@@H](O)[C@@H](O)[C@H]2O)[C@H](C)Cl)N(C)C1 [Clindamycin hydrochloride] |

| IC50 of cell viability [µM] | SMILES |
| --- | --- |
| > 46 | CN1CCN(c2c(F)cc3c(=O)c(C(=O)O)cn(CCF)c3c2F)CC1 [FLEROXACIN] |
| > 46 | O=C(CCCN1CCC(C(=O)c2ccc(F)cc2)CC1)c1ccc(F)cc1 [Lenperone] |
| > 46 | CC(=O)N[C@@H](Cc1ccc(O)cc1)C(=O)O [N-ACETYL-TYROSINE] |
| > 46 | O=C(NN1CCCC1)N[S+](=O)([O-])c1ccc(Cl)cc1 [GLYCLOPYRAMIDE] |
| > 46 | O=C(O)c1cc(/N=N/c2ccc([S+](=O)([O-])Nc3ccccn3)cc2)ccc1O [Salicylazosulfapyridine] |
| > 46 | CCC(=O)O[C@@H]1[C@H](C)O[C@@H](O[C@H]2[C@@H](N(C)C)[C@@H](O)[C@H](O[C@H]3[C@H](CC=O)C[C@@H](C)[C@@H](O)/C=C\C=C/C[C@@H](C)OC(=O)C[C@@H](OC(=O)CC)[C@H]3OC)O[C@H]2C)C[C@]1(C)O [Midecamycin] |
| > 46 | NC(CS)C(=O)O (centres undefined) [CYSTEINE HYDROCHLORIDE] |
| > 46 | CC(C)c1nc(CN(C)C(=O)NC(C(=O)NC(Cc2ccccc2)CC(O)C(Cc2ccccc2)NC(=O)OCc2cncs2)C(C)C)cs1 (centres undefined) [Ritonavir] |
| > 46 | O=CCCCC=O [Glutaraldehyde (Glutaric dialdehyde)] |
| > 46 | Nc1ncnc(Nc2ccccc2)n1 [Amanozine] |
| > 46 | O=C(NCCNCC(O)COc1ccc(O)cc1)N1CCOCC1 (centres undefined) [XAMOTEROL] |
| > 46 | Cn1c(=O)c2c(ncn2CCOC(=O)C(C)(C)Oc2ccc(Cl)cc2)n(C)c1=O [Theofibrate] |
| > 46 | S=P(N1CC1)(N1CC1)N1CC1 [THIO-TEPA] |
| > 46 | O=C1c2ccccc2CN2C(=O)c3ccccc3CN12 [Diftalone] |
| > 46 | CCCCCCCCCCCC(=O)OCC(O)CO (centres undefined) [GLYCEROL MONOLAURATE] |
| > 46 | O=C(O)c1cc(-c2ccccc2)nc2ccccc12 [2-Phenyl-4-quinolinecarboxylic acid] |
| > 46 | O=C([O-])CCC/C=C\C[C@@H]1[C@@H](/C=C/[C@@H](O)COc2cccc(Cl)c2)[C@H](O)C[C@@H]1O [CLOPROSTENOL SODIUM] |
| > 46 | CC(C)=CCC/C(C)=C/CC/C(C)=C/CC/C=C(\C)CC/C=C(\C)CCC=C(C)C [SQUALENE] |
| > 46 | NC(=O)N[C@H]1NC(=O)NC1=O [Allantoin] |

| SMILES | IC50 of cell viability [µM] |
| --- | --- |
| COc1ccc(OC)c(C(O)C(C)N)c1.Cl (centres undefined) [METHOXAMINE HYDROCHLORIDE] | > 46 |
| CN1C(=O)C(O)N=C(c2ccccc2)c2cc(Cl)ccc21 (centres undefined) [Temazepam] | > 46 |
| CN1CCC\C(C1)=C(/C2=CC=CS2)C3=CC=CS3 [TIPEPIDINE HIBENZATE] | > 46 |
| CC1OC(O[C@H]2C[C@@H](O)[C@]3(CO)[C@H]4[C@H](O)C[C@]5(C)[C@@H](C6=CC(=O)OC6)CC[C@]5(O)[C@@H]4CC[C@]3(O)C2)C(O)C(O)C1O (some centres undefined) [OUABAIN] | > 46 |
| CC(C)[N+](C)(CCC(C(N)=O)(c1ccccc1)c1ccccc1)C(C)C [Isopropamide iodide] | > 46 |
| CC1(C)C(\C=C(/Cl)Cl)C1C(=O)OCC2=CC=CC(OC3=CC=CC=C3)=C2 (centres undefined) [PERMETHRIN] | > 46 |
| CC(C)N(CC[C@@](C(N)=O)(c1ccccc1)c1ccccn1)C(C)C [Disopyramide] | > 46 |
| N#CC(C#N)=Cc1ccc(O)c(O)c1 [Tyrphostin 23] | > 46 |
| CCN(CCO)CCn1c(Cc2ccccc2)nc2c1c(=O)n(C)c(=O)n2C [Bamifylline Hydrochloride] | > 46 |
| c1ccc2sc(SNC3CCCCC3)nc2c1 [N-CYCLOHEXYLBENZOTHIAZYLSULFENAMIDE] | > 46 |
